Measured values published in ChEMBL document CHEMBL4308864, “Targeting tyrosine kinase: Development of acridone - pyrrole - oxindole hybrids against human breast cancer” (2019).

Experiments:
Assay type in all cases: functional
NCI-H522 = assay: Growth inhibition of human NCI-H522 cells assessed as cell growth at 10^-5 M incubated for 48 hrs by sulforhodamine B assay relative to control; settings: NCI-H522, 48 h, read-out: Activity
OVCAR-5 = assay: Growth inhibition of human OVCAR5 cells assessed as cell growth at 10^-5 M incubated for 48 hrs by sulforhodamine B assay relative to control; settings: OVCAR-5, 48 h, read-out: Activity
HCT-116 = assay: Growth inhibition of human HCT116 cells assessed as cell growth at 10^-5 M incubated for 48 hrs by sulforhodamine B assay relative to control; settings: HCT-116, 48 h, read-out: Activity
Malme-3M = assay: Growth inhibition of human MALME-3M cells assessed as cell growth at 10^-5 M incubated for 48 hrs by sulforhodamine B assay relative to control; settings: read-out: Activity
RXF 393 = assay: Growth inhibition of human RXF393 cells assessed as cell growth at 10^-5 M incubated for 48 hrs by sulforhodamine B assay relative to control; settings: RXF 393, 48 h, read-out: Activity
OVCAR-3 = assay: Growth inhibition of human OVCAR3 cells assessed as cell growth at 10^-5 M incubated for 48 hrs by sulforhodamine B assay relative to control; settings: OVCAR-3, 48 h, read-out: Activity
PC-3 = assay: Growth inhibition of human PC3 cells assessed as cell growth at 10^-5 M incubated for 48 hrs by sulforhodamine B assay relative to control; settings: PC-3, 48 h, read-out: Activity
RPMI-8226 = assay: Growth inhibition of human RPMI8226 cells assessed as cell growth at 10^-5 M incubated for 48 hrs by sulforhodamine B assay relative to control; settings: RPMI-8226, 48 h, read-out: Activity
MOLT-4 = assay: Growth inhibition of human MOLT4 cells assessed as cell growth at 10^-5 M incubated for 48 hrs by sulforhodamine B assay relative to control; settings: MOLT-4, 48 h, read-out: Activity
U-251 = assay: Growth inhibition of human U251 cells assessed as cell growth at 10^-5 M incubated for 48 hrs by sulforhodamine B assay relative to control; settings: U-251, 48 h, read-out: Activity
SN12C = assay: Growth inhibition of human SN12C cells assessed as cell growth at 10^-5 M incubated for 48 hrs by sulforhodamine B assay relative to control; settings: read-out: Activity
SK-MEL-5 = assay: Growth inhibition of human SK-MEL-5 cells assessed as cell growth at 10^-5 M incubated for 48 hrs by sulforhodamine B assay relative to control; settings: SK-MEL-5, 48 h, read-out: Activity
HCC 2998 = assay: Growth inhibition of human HCC2998 cells assessed as cell growth at 10^-5 M incubated for 48 hrs by sulforhodamine B assay relative to control; settings: HCC 2998, 48 h, read-out: Activity
UACC-257 = assay: Growth inhibition of human UACC257 cells assessed as cell growth at 10^-5 M incubated for 48 hrs by sulforhodamine B assay relative to control; settings: UACC-257, 48 h, read-out: Activity
HOP-62 = assay: Growth inhibition of human HOP62 cells assessed as cell growth at 10^-5 M incubated for 48 hrs by sulforhodamine B assay relative to control; settings: HOP-62, 48 h, read-out: Activity
ACHN = assay: Growth inhibition of human ACHN cells assessed as cell growth at 10^-5 M incubated for 48 hrs by sulforhodamine B assay relative to control; settings: read-out: Activity
SW-620 = assay: Growth inhibition of human SW620 cells assessed as cell growth at 10^-5 M incubated for 48 hrs by sulforhodamine B assay relative to control; settings: SW-620, 48 h, read-out: Activity
OVCAR-4 = assay: Growth inhibition of human OVCAR4 cells assessed as cell growth at 10^-5 M incubated for 48 hrs by sulforhodamine B assay relative to control; settings: OVCAR-4, 48 h, read-out: Activity
SNB-19 = assay: Growth inhibition of human SNB19 cells assessed as cell growth at 10^-5 M incubated for 48 hrs by sulforhodamine B assay relative to control; settings: SNB-19, 48 h, read-out: Activity
K562 = assay: Growth inhibition of human K562 cells assessed as cell growth at 10^-5 M incubated for 48 hrs by sulforhodamine B assay relative to control; settings: K562, 48 h, read-out: Activity
SF-268 = assay: Growth inhibition of human SF268 cells assessed as cell growth at 10^-5 M incubated for 48 hrs by sulforhodamine B assay relative to control; settings: SF-268, 48 h, read-out: Activity
A549 = assay: Growth inhibition of human A549/ATCC cells assessed as cell growth at 10^-5 M incubated for 48 hrs by sulforhodamine B assay relative to control; settings: A549, 48 h, read-out: Activity
NCI-H460 = assay: Growth inhibition of human NCI-H460 cells assessed as cell growth at 10^-5 M incubated for 48 hrs by sulforhodamine B assay relative to control; settings: NCI-H460, 48 h, read-out: Activity
NCI-H23 = assay: Growth inhibition of human NCI-H23 cells assessed as cell growth at 10^-5 M incubated for 48 hrs by sulforhodamine B assay relative to control; settings: NCI-H23, 48 h, read-out: Activity
IGROV-1 = assay: Growth inhibition of human IGROV1 cells assessed as cell growth at 10^-5 M incubated for 48 hrs by sulforhodamine B assay relative to control; settings: IGROV-1, 48 h, read-out: Activity
SK-MEL-2 = assay: Growth inhibition of human SK-MEL-2 cells assessed as cell growth at 10^-5 M incubated for 48 hrs by sulforhodamine B assay relative to control; settings: SK-MEL-2, 48 h, read-out: Activity
SR = assay: Growth inhibition of human SR cells assessed as cell growth at 10^-5 M incubated for 48 hrs by sulforhodamine B assay relative to control; settings: read-out: Activity

SMILES	growth at 10 µM (NCI-H522)	growth at 10 µM (OVCAR-5)	growth at 10 µM (HCT-116)	growth at 10 µM (Malme-3M)	growth at 10 µM (RXF 393)	growth at 10 µM (OVCAR-3)	growth at 10 µM (PC-3)	growth at 10 µM (RPMI-8226)	growth at 10 µM (MOLT-4)	growth at 10 µM (U-251)	growth at 10 µM (SN12C)	growth at 10 µM (SK-MEL-5)	growth at 10 µM (HCC 2998)	growth at 10 µM (UACC-257)	growth at 10 µM (HOP-62)	growth at 10 µM (ACHN)	growth at 10 µM (SW-620)	growth at 10 µM (OVCAR-4)	growth at 10 µM (SNB-19)	growth at 10 µM (K562)	also measured
O=C1/C(=C\c2cccn2CCCCCCn2c3ccccc3c(=O)c3ccccc32)c2ccccc2N1c1c(Cl)cccc1Cl	91%	93.5%	103%	102%	97%	102%	73.9%	93.4%	91.2%	97.6%	103%	94.7%	78.8%	99.6%	102%	97.7%	108%	58.3%	99.2%	97.9%	growth at 10 µM (SF-268): 94.7%; growth at 10 µM (A549): 96%; growth at 10 µM (NCI-H460): 109%; growth at 10 µM (NCI-H23): 101%; growth at 10 µM (IGROV-1): 90.6%; growth at 10 µM (SK-MEL-2): 98.8%; growth at 10 µM (SR): 91.5%
O=C1NC(=O)C(=Cc2cccn2CCCCCCn2c3ccccc3c(=O)c3ccccc32)C(=O)N1	92.7%	98.3%	71.2%	112%	106%	103%	87.7%	73.9%	79.6%	90.5%	100%	85.7%	101%	103%	93.1%	103%	96.9%	95.4%	94.2%	74.7%	growth at 10 µM (SF-268): 97%; growth at 10 µM (A549): 95.6%; growth at 10 µM (NCI-H460): 101%; growth at 10 µM (NCI-H23): 84.2%; growth at 10 µM (IGROV-1): 91.5%; growth at 10 µM (SK-MEL-2): 107%; growth at 10 µM (SR): 72.2%
O=C1/C(=C\c2cccn2CCCCCn2c3ccccc3c(=O)c3ccccc32)c2ccccc2N1c1c(Cl)cccc1Cl	84.9%	94.5%	85.9%	108%	100%	99.1%	73.2%	92.3%	87.6%	93%	100%	96.2%	66.3%	100%	102%	100%	95.7%	62.3%	98.5%	97.6%	growth at 10 µM (SF-268): 95.7%; growth at 10 µM (A549): 85.9%; growth at 10 µM (NCI-H460): 99.7%; growth at 10 µM (NCI-H23): 98%; growth at 10 µM (IGROV-1): 98.7%; growth at 10 µM (SK-MEL-2): 101%; growth at 10 µM (SR): 92.3%
O=C1Nc2ccccc2/C1=C/c1cccn1CCCCCCn1c2ccccc2c(=O)c2ccccc21	66%	82.2%	70.4%	90.7%	99.2%	64.9%	40.1%	25.3%	50.9%	92.4%	93.6%	34.7%	42.8%	110%	63.2%	89.7%	102%	53.8%	97.1%	66.6%	growth at 10 µM (SF-268): 87%; growth at 10 µM (A549): 87.8%; growth at 10 µM (NCI-H460): 90.7%; growth at 10 µM (NCI-H23): 73.6%; growth at 10 µM (IGROV-1): 88%; growth at 10 µM (SK-MEL-2): 86.2%; growth at 10 µM (SR): 80.8%
